Reference: ChEMBL document CHEMBL5260846, “Emerging targets and potential therapeutic agents in non-alcoholic fatty liver disease treatment” (Eur J Med Chem, 2020)
Blank lines part the entries; values can stand above or below the molecule they belong to.

Assays:
Hepatocyte = assay: Anti-fibrosis effect in CCl4 induced lipid peroxidation in rat hepatocytes by measuring MDA formation incubated for 1 hr by TBARS method; format: functional, cell-based
[1] = biological target: T1, Peroxisome proliferator-activated receptor alpha (Mus musculus, UniProt P23204); assay: Agonist activity at mouse PPARalpha
T1 sequence (P23204 whole entry): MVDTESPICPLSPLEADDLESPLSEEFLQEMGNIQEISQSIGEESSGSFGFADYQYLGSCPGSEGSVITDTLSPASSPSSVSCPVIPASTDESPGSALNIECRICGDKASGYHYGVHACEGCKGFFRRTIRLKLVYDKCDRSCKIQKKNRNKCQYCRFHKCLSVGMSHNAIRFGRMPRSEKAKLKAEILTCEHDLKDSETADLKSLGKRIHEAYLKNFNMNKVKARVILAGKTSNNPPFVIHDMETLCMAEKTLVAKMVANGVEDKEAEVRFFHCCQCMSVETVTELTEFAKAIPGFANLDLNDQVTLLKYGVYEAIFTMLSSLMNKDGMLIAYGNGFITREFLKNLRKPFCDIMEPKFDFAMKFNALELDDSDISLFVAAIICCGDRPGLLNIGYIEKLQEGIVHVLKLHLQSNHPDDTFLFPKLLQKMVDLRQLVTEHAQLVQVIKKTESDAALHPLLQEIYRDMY

[2] = biological target: T2, Peroxisome proliferator-activated receptor alpha (Homo sapiens, UniProt Q07869); assay: Agonist activity at PPARalpha in human HepG2 cells; format: cell-based
T2 sequence (Q07869 whole entry): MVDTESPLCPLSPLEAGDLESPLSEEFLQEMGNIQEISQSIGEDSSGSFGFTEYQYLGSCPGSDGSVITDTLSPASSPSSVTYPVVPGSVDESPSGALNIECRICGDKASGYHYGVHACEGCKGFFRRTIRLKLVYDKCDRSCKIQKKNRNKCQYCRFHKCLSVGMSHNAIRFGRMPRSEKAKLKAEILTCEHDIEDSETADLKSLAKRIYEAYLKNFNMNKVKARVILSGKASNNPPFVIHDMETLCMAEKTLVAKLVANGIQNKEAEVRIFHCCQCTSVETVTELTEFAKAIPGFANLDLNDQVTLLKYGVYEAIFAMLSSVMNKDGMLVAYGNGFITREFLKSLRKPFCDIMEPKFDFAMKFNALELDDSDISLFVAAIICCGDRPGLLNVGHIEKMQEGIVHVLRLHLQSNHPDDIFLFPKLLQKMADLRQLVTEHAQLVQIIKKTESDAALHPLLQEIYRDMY

[3] = tested on: Human immunodeficiency virus 1; assay: Antiviral activity against M tropic HIV-1 Ba-L infected in human HeLa-MAGI-CCR5 cells assessed as inhibition of viral replication; format: functional, organism-based; details: Human immunodeficiency virus 1, Ba-L
[4] = biological target: C-C chemokine receptor type 5 (Homo sapiens, UniProt P51681); assay: Antagonist at CCR5 (unknown origin) assessed as inhibitory constant
[5] = biological target: T3, Peroxisome proliferator-activated receptor delta (Homo sapiens, UniProt Q03181); assay: Agonist activity at PPARdelta (unknown origin)
T3 sequence (Q03181 whole entry): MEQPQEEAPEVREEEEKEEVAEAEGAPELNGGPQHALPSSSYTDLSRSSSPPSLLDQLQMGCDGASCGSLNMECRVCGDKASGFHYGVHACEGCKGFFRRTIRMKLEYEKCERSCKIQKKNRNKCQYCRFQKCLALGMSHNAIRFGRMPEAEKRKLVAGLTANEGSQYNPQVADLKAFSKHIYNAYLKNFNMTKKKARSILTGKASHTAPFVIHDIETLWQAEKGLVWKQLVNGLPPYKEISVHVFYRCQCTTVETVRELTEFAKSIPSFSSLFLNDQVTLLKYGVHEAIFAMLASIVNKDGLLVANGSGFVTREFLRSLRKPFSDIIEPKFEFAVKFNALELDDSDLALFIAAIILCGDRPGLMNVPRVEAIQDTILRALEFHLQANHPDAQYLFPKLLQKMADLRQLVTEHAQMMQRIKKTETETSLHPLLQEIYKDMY

[6] = biological target: T4, Peroxisome proliferator-activated receptor gamma (Homo sapiens, UniProt P37231); assay: Agonist activity at PPARgamma (unknown origin) assessed as transcriptional activation
T4 sequence (P37231 whole entry): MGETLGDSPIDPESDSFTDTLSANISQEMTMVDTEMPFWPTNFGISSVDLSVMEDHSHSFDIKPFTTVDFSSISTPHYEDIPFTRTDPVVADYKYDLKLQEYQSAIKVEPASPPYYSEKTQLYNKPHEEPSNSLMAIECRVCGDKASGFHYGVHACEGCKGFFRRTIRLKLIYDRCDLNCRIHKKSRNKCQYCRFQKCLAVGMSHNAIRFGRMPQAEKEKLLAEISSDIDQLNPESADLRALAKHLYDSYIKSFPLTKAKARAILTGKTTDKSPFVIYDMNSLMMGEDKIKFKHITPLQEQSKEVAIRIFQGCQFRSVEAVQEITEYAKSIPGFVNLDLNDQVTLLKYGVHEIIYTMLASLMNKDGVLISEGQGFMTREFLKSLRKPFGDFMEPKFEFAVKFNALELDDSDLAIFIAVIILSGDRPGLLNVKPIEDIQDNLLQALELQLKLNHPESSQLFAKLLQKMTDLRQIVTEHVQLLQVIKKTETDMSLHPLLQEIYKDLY

[7] = biological target: T2, Peroxisome proliferator-activated receptor alpha; assay: Agonist activity at PPARalpha (unknown origin) assessed as transcriptional activation
[8] = biological target: T2, Peroxisome proliferator-activated receptor alpha; assay: Binding affinity to PPARalpha (unknown origin)
[9] = biological target: T2, Peroxisome proliferator-activated receptor alpha; assay: Agonist activity at PPARalpha (unknown origin)

C-C chemokine receptor type 5, sequence (P51681 whole entry): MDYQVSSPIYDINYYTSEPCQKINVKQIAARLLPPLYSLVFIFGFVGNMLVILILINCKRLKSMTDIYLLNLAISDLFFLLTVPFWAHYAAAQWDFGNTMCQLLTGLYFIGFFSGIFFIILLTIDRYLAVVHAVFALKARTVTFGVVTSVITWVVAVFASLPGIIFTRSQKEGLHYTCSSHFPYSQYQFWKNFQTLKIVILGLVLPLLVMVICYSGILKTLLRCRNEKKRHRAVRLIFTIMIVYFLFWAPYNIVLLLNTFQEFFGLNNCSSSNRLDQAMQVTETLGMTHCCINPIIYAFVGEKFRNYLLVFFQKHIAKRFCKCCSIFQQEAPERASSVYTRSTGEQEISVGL

SMILES: O=C(/C=C/c1ccc(O)c2c1[C@@H](C(=O)O[C@H](Cc1ccc(O)c(O)c1)C(=O)O)[C@H](c1ccc(O)c(O)c1)O2)O[C@H](Cc1ccc(O)c(O)c1)C(=O)O
- IC50 (Hepatocyte): 2.75 mM

SMILES: Cc1ccc(-c2ccc3c(c2)C=C(C(=O)Nc2ccc(C[N+](C)(C)C4CCOCC4)cc2)CCC3)cc1
- EC50 [3]: 1.2 nM
- EC90 [3]: 5.7 nM
- Ki [4]: 1.1 nM

SMILES: CCCc1c(OCCCOc2ccc(OCC(=O)O)cc2)ccc(C(C)=O)c1O
- EC50 [5]: 50 nM

SMILES: COc1ccc(Oc2cc(N(C)CCOc3ccc(CC4SC(=O)NC4=O)cc3)ncn2)cc1 (configuration not stated) [LOBEGLITAZONE]
- EC50 [8]: 20 µM

SMILES: CCOC(=O)C(C)(C)Oc1ccc(Cl)cc1 [CLOFIBRATE]
- EC50 [1]: 55 µM

The next lines start with the values.

- EC50 [1]: 50 µM
SMILES: CC(C)(Oc1ccc(CCNC(=O)c2ccc(Cl)cc2)cc1)C(=O)O [BEZAFIBRATE]

- EC50 [2]: 0.65 pM
SMILES: CCO[C@@H](Cc1ccc(OCCn2c(C)ccc2-c2ccc(SC)cc2)cc1)C(=O)O [SAROGLITAZAR]

- EC50 [6]: 175 nM
- EC50 [7]: 45 nM
SMILES: CSc1ccc(C(=O)/C=C/c2cc(C)c(OC(C)(C)C(=O)O)c(C)c2)cc1 [ELAFIBRANOR]

- EC50 [9]: 15.2 µM
SMILES: Cc1ccc(C)c(OCCCC(C)(C)C(=O)O)c1 [GEMFIBROZIL]
